Here are results for nine molecules from patent US5922580A, “Non-reducing saccharide-forming enzyme, its preparation and uses” (priority 1992, dated 1999).

Molecules are shown by their SMILES.

The test system of data set [1] is non-reducing saccharide-forming enzyme. In kind it is biochemical, Rhizobium sp. M-11. As to conditions: for Formation of novel saccharide from substrate / Percentage of newly-formed saccharide (P I to P V) in reaction product: 20% substrate, 40° C., pH 7.0, 48 hours; for Percentage of remaining substrate in reaction product: non-reducing saccharide-forming enzyme, 48 h, pH 7; for Percentage of newly-formed saccharide (P I to P V) in reaction product: 2 units per g substrate, HPLC. On the procedure: An aqueous solution containing 20% glucose, maltose, maltotriose, maltotetraose, maltopentaose, maltohexaose or maltoheptaose as a substrate was prepared, and mixed with 2 units per g substrate, d.s.b., of the purified enzyme preparation obtained in Experiment 2, and the resultant mixture was subjected to an enzymatic reaction at 40° C. and pH 7.0 for 48 hours. The reaction mixture was desalted and analyzed on high-performance liquid chromatography (HPLC) using "Wakobeads WB-T-330 column", a product of Wako Pure Chemical Industries Ltd., Tokyo, Japan. The HPLC procedure was conducted at an ambient temperature and a flow rate of 0.5 ml/min of water as an eluent, and "RI-8012", a differential refractometer commercialized by Tosho Corporation, Tokyo, Japan, was used for analyzing reaction products.

Data set [2] addresses T1, α-amylase specimen derived from pig pancreas (Sus scrofa, UniProt P00690).
T1 construct: purchased Sigma Chemical Company, St. Louis, USA; host or cells: pig pancreas
T1 sequence (P00690 16-511): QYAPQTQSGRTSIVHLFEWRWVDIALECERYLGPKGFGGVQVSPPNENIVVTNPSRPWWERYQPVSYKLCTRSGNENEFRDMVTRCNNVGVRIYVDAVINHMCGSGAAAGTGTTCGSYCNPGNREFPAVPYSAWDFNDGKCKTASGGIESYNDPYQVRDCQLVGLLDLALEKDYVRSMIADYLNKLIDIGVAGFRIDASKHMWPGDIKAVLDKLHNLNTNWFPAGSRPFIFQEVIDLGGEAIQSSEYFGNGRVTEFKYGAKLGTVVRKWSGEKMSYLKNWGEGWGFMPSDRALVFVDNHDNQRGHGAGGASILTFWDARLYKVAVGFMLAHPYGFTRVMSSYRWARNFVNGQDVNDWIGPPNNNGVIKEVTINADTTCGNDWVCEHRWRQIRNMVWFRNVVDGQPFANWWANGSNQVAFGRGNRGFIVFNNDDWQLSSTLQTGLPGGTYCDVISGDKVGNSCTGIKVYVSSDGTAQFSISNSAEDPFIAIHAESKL
Briefly: Hydrolysis by α-amylase. In kind it is biochemical. More on the design: Saccharide composition of hydrolysate: P I / Saccharide composition of hydrolysate: P II / Saccharide composition of hydrolysate: G3 (maltotriose) / Saccharide composition of hydrolysate: G2 (maltose) / Saccharide composition of hydrolysate: G1 (glucose): unit not given here. The procedure:
(§1) The enzymatic reaction with the α-amylase was as follows: Dissolving 10 mg of a substrate in one ml of 50 mM phosphate buffer (pH 6.9), mixing the resultant solution with one unit of the α-amylase, and incubating the resultant mixture at 37° C. for 18 hours. The enzymatic reaction with the α-glucosidase was conducted under the same conditions as in the case of α-amylase except that 50 mM acetate buffer (pH 4.0) was used as a buffer. The enzymatic reaction with the rat intestinal acetone powder was carried out under the same conditions as in the case of α-amylase except that 50 mM maleate buffer (pH 6.0) was used as a buffer.

A short description of data set [3]: Reducing power by Somogyi-Nelson's method expressed as DE. In kind it is physicochemical. On the procedure:
The reducing powders of these novel saccharides were determined on the Somogyi-Nelson's method and expressed by DE (dextrose equivalent).

Data set [4] has as its system glucoamylase. Briefly: Enzymatic hydrolysis by glucoamylase. Format: biochemical. On the procedure:
Fifty mg aliquots of non-reducing saccharides P I, P II, P III, P IV and P V in Experiment 4 were respectively dissolved in one ml of 50 mM acetate buffer (pH 4.5), admixed with one unit of glucoamylase commercialized by Seikagaku-Kogyo Co., Ltd., Tokyo, Japan, to effect enzymatic hydrolysis at 40° C. for 6 hours. The only saccharides detected in every resultant mixture on HPLC analysis were glucose and trehalose.

Data set [5] has as its target T2, α-glucosidase specimen derived from rice (Oryza sativa subsp. japonica, UniProt Q653V7).
T2 construct: purchased Sigma Chemical Company, St. Louis, USA; host or cells: rice
Briefly: Hydrolysis by α-glucosidase. Conditions: 50 mM acetate buffer pH 4.0, 37° C., 18 hours. Format: biochemical. On the procedure:
as §1

Data set [6] relates to rat intestinal acetone powder. As to the kind of experiment: Hydrolysis by rat intestinal acetone powder. In kind it is in vitro ADME. Conditions: 50 mM maleate buffer pH 6.0, 37° C., 18 hours. On the procedure: as §1
In data set [7] the test system is 7-week old dd-strain mice. Briefly: Acute toxicity test, oral. In kind it is in vivo.
Data set [8] in a line: Maillard reaction with glycine. In kind it is physicochemical. Conditions: for Coloration degree (480 nm): 1% glycine, 10% saccharide, 50 mM phosphate buffer pH 7.0, 100° C. for 90 min, absorbance in 1-cm cell. On the procedure:
As a control, maltotriose, maltotetraose, maltopentaose, maltohexaose and maltoheptaose as a material for the saccharide preparations were similarly treated as above, and measured their absorbances were measured at a wave length of 480 nm.

Data set [9] deals with β-amylase (Glycine max, UniProt P10538). As to the kind of experiment: Hydrolysis by β-amylase. Format: biochemical. Conditions: similarly as with glucoamylase.
Sequence of β-amylase (P10538 whole entry, species assumed): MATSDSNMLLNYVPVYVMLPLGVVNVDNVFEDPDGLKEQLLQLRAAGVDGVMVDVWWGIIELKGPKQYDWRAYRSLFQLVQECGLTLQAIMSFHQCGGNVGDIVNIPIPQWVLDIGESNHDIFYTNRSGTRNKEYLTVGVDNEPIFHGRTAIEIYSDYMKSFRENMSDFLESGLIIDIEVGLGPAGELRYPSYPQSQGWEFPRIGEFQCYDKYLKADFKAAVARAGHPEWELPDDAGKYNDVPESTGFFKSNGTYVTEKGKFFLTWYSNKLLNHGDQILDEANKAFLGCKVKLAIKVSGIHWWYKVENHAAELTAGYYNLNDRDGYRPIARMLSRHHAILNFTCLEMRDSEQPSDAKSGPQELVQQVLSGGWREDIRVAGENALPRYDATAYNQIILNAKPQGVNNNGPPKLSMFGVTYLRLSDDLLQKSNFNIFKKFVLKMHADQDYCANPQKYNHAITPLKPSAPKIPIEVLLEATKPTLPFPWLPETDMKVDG
Where [10] appears, read: α-amylase, 10 mg/ml, pH 6.9, 37° C., 18 hours, HPLC.
Where [11] appears, read: 50 mg in 1 ml 50 mM acetate buffer pH 4.5, one unit glucoamylase, 40° C., 6 hours, HPLC.

T2 sequence (Q653V7 34-885): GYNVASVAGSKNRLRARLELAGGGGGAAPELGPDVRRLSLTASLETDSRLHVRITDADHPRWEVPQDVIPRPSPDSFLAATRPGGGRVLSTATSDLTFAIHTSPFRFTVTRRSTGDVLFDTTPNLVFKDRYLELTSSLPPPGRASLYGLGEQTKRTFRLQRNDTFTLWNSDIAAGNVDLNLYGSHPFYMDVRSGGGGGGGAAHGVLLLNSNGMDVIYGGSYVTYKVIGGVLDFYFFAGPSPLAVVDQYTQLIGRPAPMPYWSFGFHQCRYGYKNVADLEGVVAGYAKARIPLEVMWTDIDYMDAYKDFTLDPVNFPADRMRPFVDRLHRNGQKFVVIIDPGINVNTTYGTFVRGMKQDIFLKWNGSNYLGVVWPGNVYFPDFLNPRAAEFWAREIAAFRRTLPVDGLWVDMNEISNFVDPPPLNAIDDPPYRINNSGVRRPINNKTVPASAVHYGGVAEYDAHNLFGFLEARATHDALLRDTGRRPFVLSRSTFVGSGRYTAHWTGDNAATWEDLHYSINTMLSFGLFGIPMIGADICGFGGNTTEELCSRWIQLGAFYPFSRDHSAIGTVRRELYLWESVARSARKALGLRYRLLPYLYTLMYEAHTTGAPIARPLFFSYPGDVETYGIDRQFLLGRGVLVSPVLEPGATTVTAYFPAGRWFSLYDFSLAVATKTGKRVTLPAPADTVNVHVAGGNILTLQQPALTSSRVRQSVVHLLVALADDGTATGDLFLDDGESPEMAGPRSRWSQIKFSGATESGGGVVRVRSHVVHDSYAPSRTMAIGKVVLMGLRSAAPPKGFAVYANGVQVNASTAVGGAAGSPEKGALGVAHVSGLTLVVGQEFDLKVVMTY

Regarding `OC[C@H]1O[C@H](O[C@H]2[C@H](O)[C@@H](O)C(O)O[C@@H]2CO)[C@H](O)[C@@H](O)[C@@H]1O` (mixture of isomers) [Maltose], in [1], the “Formation of novel saccharide from substrate” value is “no novel saccharide was formed” and the “Percentage of remaining substrate in reaction product” value (“Percentage of remaining substrate” below) is listed as 100.0%.

For the molecule `OC[C@H]1O[C@H](O[C@H]2O[C@H](CO)[C@@H](O[C@H]3O[C@H](CO)[C@@H](O[C@H]4O[C@H](CO)[C@@H](O[C@H]5O[C@H](CO)[C@@H](O[C@H]6O[C@H](CO)[C@@H](O)[C@H](O)[C@H]6O)[C@H](O)[C@H]5O)[C@H](O)[C@H]4O)[C@H](O)[C@H]3O)[C@H](O)[C@H]2O)[C@H](O)[C@@H](O)[C@@H]1O` [P IV, α-maltotetraosyl trehalose], in [2] (conclusion from Table 6), the “Hydrolysis by α-amylase” value is given as “hydrolyzed by α-amylase into lower molecular weight oligosaccharides”. Besides, in data set [2] (setting [10]), the “Saccharide composition of hydrolysate: G1 (glucose)” value was 1.6, the “Saccharide composition of hydrolysate: G2 (maltose)” value turned out to be 7.5, the “Saccharide composition of hydrolysate: G3 (maltotriose)” value is given as 40.4 and the “Saccharide composition of hydrolysate: P I” value came to 47.2. Further, in data set [2] (setting [10]), the “Saccharide composition of hydrolysate: P II” value turned out to be 3.3. In data set [3] (high-purity saccharide preparations of Experiment 4), the DE is on record as 0.27. In data set [4] (setting [11]), the Glucose is 68.3% and the Trehalose is on record as 31.7%. The “Molecular ratio (Glucose/Trehalose)” value in data set [4] (glucoamylase hydrolysate) turned out to be 4.09. Moreover, in data set [5], the “Saccharide composition of hydrolysate with α-glucosidase: Glucose” value is given as 69.5%, the “Saccharide composition of hydrolysate with α-glucosidase: Other saccharides” value is 0.3% and the “Saccharide composition of hydrolysate with α-glucosidase: Trehalose” value is 30.2%. In addition, in [6], the “Saccharide composition of hydrolysate with rat intestinal acetone powder: Glucose” value stood at 68.8%, the “Saccharide composition of hydrolysate with rat intestinal acetone powder: Other saccharides” value is 0.4% and the “Saccharide composition of hydrolysate with rat intestinal acetone powder: Trehalose” value was 30.8%. In data set [7] (mouse, in vivo, po), the LD50 was no less than 50000 mg/kg. Further, the Death of mice entry in [7] (oral, highest possible doses) was “no mouse died”. In addition, the “Coloration degree (480 nm)” value in data set [8] stood at 0.016. For the same molecule, the “Coloration degree relative to corresponding material maltooligosaccharide” value in data set [8] (Maillard reaction, 480 nm) is reported as 3-6%. The “Hydrolysis by β-amylase” value in data set [9] was “one mole of maltose and one mole of P II”.

Consider `OC[C@H]1O[C@H](O[C@H]2[C@H](O)[C@@H](O)[C@@H](O[C@H]3[C@H](O)[C@@H](O)[C@@H](O[C@H]4[C@H](O)[C@@H](O)C(O)O[C@@H]4CO)O[C@@H]3CO)O[C@@H]2CO)[C@H](O)[C@@H](O)[C@@H]1O` (stereo partly drawn) [Maltotetraose], for which, in [1], the “Percentage of newly-formed saccharide (P I to P V) in reaction product” value (“Percentage … (P I to P V) in reaction product” for short) was 85.6% and the “Percentage of remaining substrate” value is reported as 14.4%. In addition, the “Coloration degree (480 nm)” value in data set [8] came to 0.475.

As for `OC[C@H]1O[C@H](O[C@H]2[C@H](O)[C@@H](O)[C@@H](O[C@H]3[C@H](O)[C@@H](O)C(O)O[C@@H]3CO)O[C@@H]2CO)[C@H](O)[C@@H](O)[C@@H]1O` (stereo partly drawn) [Maltotriose], in data set [1], the “Percentage … (P I to P V) in reaction product” value is 35.0% and the “Percentage of remaining substrate” value is 65.0%. Further, the “Coloration degree (480 nm)” value in data set [8] is reported as 0.623.

For `OC[C@H]1O[C@H](O[C@H]2[C@H](O)[C@@H](O)[C@@H](O[C@H]3[C@H](O)[C@@H](O)[C@@H](O[C@H]4[C@H](O)[C@@H](O)[C@@H](O[C@H]5[C@H](O)[C@@H](O)[C@@H](O[C@H]6[C@H](O)[C@@H](O)[C@@H](O[C@H]7[C@H](O)[C@@H](O)C(O)O[C@@H]7CO)O[C@@H]6CO)O[C@@H]5CO)O[C@@H]4CO)O[C@@H]3CO)O[C@@H]2CO)[C@H](O)[C@@H](O)[C@@H]1O` (stereo partly drawn) [Maltoheptaose], in data set [1], the “Percentage … (P I to P V) in reaction product” value was 93.4% and the “Percentage of remaining substrate” value is on record as 6.7%. Also, the “Coloration degree (480 nm)” value in [8] worked out at 0.271.

On to `OC[C@H]1O[C@H](O[C@H]2[C@H](O)[C@@H](O)[C@@H](O[C@H]3[C@H](O)[C@@H](O)[C@@H](O[C@H]4[C@H](O)[C@@H](O)[C@@H](O[C@H]5[C@H](O)[C@@H](O)C(O)O[C@@H]5CO)O[C@@H]4CO)O[C@@H]3CO)O[C@@H]2CO)[C@H](O)[C@@H](O)[C@@H]1O` (stereo partly drawn) [Maltopentaose], for which, in data set [1], the “Percentage … (P I to P V) in reaction product” value is listed as 92.7% and the “Percentage of remaining substrate” value was determined as 7.3%. For the same molecule, the “Initial reducing power that diminishes by the enzymatic reaction” value in [1] (substrate of the present enzyme) is reported as “about 93%”. Besides, the “Coloration degree (480 nm)” value in data set [8] worked out at 0.369.

With `OC[C@H]1O[C@H](O[C@H]2O[C@H](CO)[C@@H](O[C@H]3O[C@H](CO)[C@@H](O[C@H]4O[C@H](CO)[C@@H](O[C@H]5O[C@H](CO)[C@@H](O)[C@H](O)[C@H]5O)[C@H](O)[C@H]4O)[C@H](O)[C@H]3O)[C@H](O)[C@H]2O)[C@H](O)[C@@H](O)[C@@H]1O` [Example A-5], in data set [3] (products of Examples A), the DE of product entry is reported as “lower than 0.2”.

With `OC[C@H]1O[C@H](O[C@H]2[C@H](O)[C@@H](O)[C@@H](O[C@H]3[C@H](O)[C@@H](O)[C@@H](O[C@H]4[C@H](O)[C@@H](O)[C@@H](O[C@H]5[C@H](O)[C@@H](O)[C@@H](O[C@H]6[C@H](O)[C@@H](O)C(O)O[C@@H]6CO)O[C@@H]5CO)O[C@@H]4CO)O[C@@H]3CO)O[C@@H]2CO)[C@H](O)[C@@H](O)[C@@H]1O` (stereo partly drawn) [Maltohexaose], in data set [1], the “Percentage … (P I to P V) in reaction product” value came out at 93.5% and the “Percentage of remaining substrate” value is 6.5%. Moreover, the “Coloration degree (480 nm)” value in data set [8] amounted to 0.318.

Take `OC[C@H]1OC(O)[C@H](O)[C@@H](O)[C@@H]1O` (stereo partly drawn) [Glucose]: in [1], the “Formation of novel saccharide from substrate” value is on record as “no novel saccharide was formed” and the “Percentage of remaining substrate” value is on record as 100.0%.

As usually defined, the LD50 is the dose at which mortality reaches 50%.
